Measurements published in ChEMBL document CHEMBL4007488, “Amphiphilic Indole Derivatives as Antimycobacterial Agents: Structure-Activity Relationships and Membrane Targeting Properties” (J Med Chem, 2017).
Values after ≈ are worked out from the molar mass of the structure shown. Active and inactive are the calls of the source. The calls are words filed in the database; no cut-off is given here.

Key:
[1] = Selectivity index, ratio of IC50 for African green monkey Vero E6 cells to MIC50 for Mycobacterium tuberculosis H37Rv ATCC 27294; format: toxicity, Vero C1008; conditions: read-out: Selectivity Index
HepG2 = experiment: Cytotoxicity against human HepG2 cells assessed as reduction in cell viability after 48 hrs by MTT assay; format: cell-based; conditions: HepG2, 48 h
[2] = system: Mycolicibacterium smegmatis; experiment: Antimycobacterial activity against Mycobacterium smegmatis MC2 155 ATCC 700084 assessed as growth inhibition at 10 uM after 5 days relative to control; format: functional; conditions: MC2 155 ATCC 700084, 120 h, read-out: GI
[3] = Aqueous solubility of compound at pH 7.4 at 25 degC after 24 hrs; format: physicochemical; conditions: buffer
[4] = system: Mycobacterium tuberculosis; experiment: Antimycobacterial activity against Mycobacterium tuberculosis H37Rv ATCC 27294 assessed as growth inhibition at 10 uM after 5 days relative to control; format: functional; conditions: H37Rv ATCC 27294, 120 h, read-out: GI
[5] = Therapeutic index, ratio of HC50 for human RBC to MIC50 for Mycobacterium tuberculosis H37Rv ATCC 27294
[6] = Half life in rat liver microsomes preincubated for 5 mins followed by NADPH addition measured up to 45 mins by LC-MS analysis; format: ADME, microsome
Escherichia coli = experiment: Antibacterial activity against Escherichia coli ATCC 25922 after 18 hrs; format: functional
[7] = system: Mycobacterium tuberculosis; experiment: Antimycobacterial activity against Mycobacterium tuberculosis H37Rv ATCC 27294 after 5 days by broth dilution method; format: functional; conditions: H37Rv ATCC 27294, 120 h
Lipid bilayer [8] = experiment: Binding affinity to DMPG vesicles assessed as melting transition temperature by differential scanning calorimetric analysis (reference value: 21.09 to 23.32 degC)
Lipid bilayer [9] = experiment: Binding affinity to DMPG vesicles assessed as change in enthalpy by differential scanning calorimetric analysis
Lipid bilayer [10] = experiment: Binding affinity to DMPG vesicles assessed as increase in width at 1/2 height of endotherm of compound containing vesicles by differential scanning calorimetric analysis
Staphylococcus aureus = experiment: Antibacterial activity against Staphylococcus aureus ATCC 29213 after 18 hrs; format: functional; conditions: ATCC 29213, 18 h
[11] = system: Mycobacteroides abscessus; experiment: Antimycobacterial activity against Mycobacterium abscessus Bamboo after 3 days; format: functional; conditions: 72 h
[12] = Selectivity index, ratio of IC50 for human HepG2 cells to MIC50 for Mycobacterium tuberculosis H37Rv ATCC 27294; format: toxicity; conditions: read-out: Selectivity Index
Vero C1008 = experiment: Cytotoxicity against African green monkey Vero E6 cells assessed as reduction in cell viability after 48 hrs by 96 aqueous one-based assay; conditions: Chlorocebus sabaeus, Vero C1008, 48 h
Mycobacterium avium = experiment: Antimycobacterial activity against Mycobacterium avium 11 after 4 days; format: functional; conditions: Mycobacterium avium, 11, 96 h

CCCCCCCCn1cc(CN2CCCCCC2)c2c(F)cccc21 showed a selectivity ratio [1] of 12.7, an IC50 (HepG2) of 19.2 µM and an inhibition of growth at 10 µM [2] of 99%. The solubility at 24 h [3] was 35.9 µM (≈ 12.9 µg/mL), the inhibition of growth at 10 µM [4] was 99% and the TI [5] was 15 to 30. The half-life [6] was 560 min, the Activity (Escherichia coli) was “inactive” and the MIC50 [7] was 2.3 µM (≈ 0.825 µg/mL). It also gave an MIC90 [7] of 5 µM (≈ 1.79 µg/mL), a Tm (Lipid bilayer [8]) of 18 °C and a deltaH (Lipid bilayer [9]) of -5.82 kJ/mol. The Activity (Lipid bilayer [10]) was “Active”, the MIC50 (Staphylococcus aureus) was 8 µM (≈ 2.87 µg/mL) and the MIC50 [11] was 19 µM (≈ 6.81 µg/mL). The selectivity ratio [12] was 8.3, the IC50 (Vero C1008) was 29.2 µM and the MIC50 (Mycobacterium avium) was 2 µM (≈ 0.717 µg/mL).
Molecule CCCCCCCCn1cc(CN2CCC(C)CC2)c2ccc(OC)cc21 has a selectivity ratio [1] of 21.5, an IC50 (HepG2) of 15.7 µM and an inhibition of growth at 10 µM [2] of 99%. For the same molecule, the solubility at 24 h [3] was 44.9 µM (≈ 16.6 µg/mL), the inhibition of growth at 10 µM [4] was 99% and the TI [5] was 15 to 30. For the same molecule, the half-life [6] was 5.5 min, the MIC50 [7] was 1.5 µM (≈ 0.556 µg/mL) and the MIC90 [7] was 3.3 µM (≈ 1.22 µg/mL). For the same molecule, the Tm (Lipid bilayer [8]) was 18.9 °C, the deltaH (Lipid bilayer [9]) was -6.82 kJ/mol and the selectivity ratio [12] was 10.5. The IC50 (Vero C1008) was 32.2 µM.
With CCCCCCCCn1cc(CN2CCC3(CC2)OCCO3)c2ccc(OC)cc21 the selectivity ratio [1] was 38.4, the IC50 (HepG2) was 15.7 µM and the inhibition of growth at 10 µM [2] was 99%. For the same molecule, the solubility at 24 h [3] was 31.3 µM (≈ 13 µg/mL), the inhibition of growth at 10 µM [4] was 99% and the TI [5] was 15 to 30. For the same molecule, the half-life [6] was 27.9 min, the MIC50 [7] was 1.2 µM (≈ 0.498 µg/mL) and the MIC90 [7] was 2.3 µM (≈ 0.954 µg/mL). It also gave a Tm (Lipid bilayer [8]) of 18.1 °C, a deltaH (Lipid bilayer [9]) of -6.64 kJ/mol and a selectivity ratio [12] of 13.1. The IC50 (Vero C1008) was 46.1 µM.
